Measurements from patent US20230141603A1, “BENZODIAZEPINE DERIVATIVES AS GABA A GAMMA1 PAM” (Hoffmann-La Roche Inc., priority 2021, published 2023).

Molecular target: T1, h-GABAA α1β2γ1 (Homo sapiens, UniProt P14867+Q8N1C3)
T1 construct: expressed in transfected cells; host or cells: HEK293F cells (ThermoFisher R79007), membranes
T1 sequence (P14867 28-456): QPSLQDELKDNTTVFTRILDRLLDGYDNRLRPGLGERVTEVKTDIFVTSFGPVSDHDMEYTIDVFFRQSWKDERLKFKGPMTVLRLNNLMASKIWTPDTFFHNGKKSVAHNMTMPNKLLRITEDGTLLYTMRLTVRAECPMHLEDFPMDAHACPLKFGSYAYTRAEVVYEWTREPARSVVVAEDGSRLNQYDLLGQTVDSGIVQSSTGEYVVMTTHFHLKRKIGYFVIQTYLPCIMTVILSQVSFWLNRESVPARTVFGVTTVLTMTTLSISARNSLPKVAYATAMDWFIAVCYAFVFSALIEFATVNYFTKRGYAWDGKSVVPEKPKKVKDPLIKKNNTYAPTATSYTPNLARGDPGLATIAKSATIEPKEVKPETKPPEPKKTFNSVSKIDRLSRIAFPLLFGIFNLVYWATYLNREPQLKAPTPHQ
T1 sequence (P47870 25-512 partner limits assumed): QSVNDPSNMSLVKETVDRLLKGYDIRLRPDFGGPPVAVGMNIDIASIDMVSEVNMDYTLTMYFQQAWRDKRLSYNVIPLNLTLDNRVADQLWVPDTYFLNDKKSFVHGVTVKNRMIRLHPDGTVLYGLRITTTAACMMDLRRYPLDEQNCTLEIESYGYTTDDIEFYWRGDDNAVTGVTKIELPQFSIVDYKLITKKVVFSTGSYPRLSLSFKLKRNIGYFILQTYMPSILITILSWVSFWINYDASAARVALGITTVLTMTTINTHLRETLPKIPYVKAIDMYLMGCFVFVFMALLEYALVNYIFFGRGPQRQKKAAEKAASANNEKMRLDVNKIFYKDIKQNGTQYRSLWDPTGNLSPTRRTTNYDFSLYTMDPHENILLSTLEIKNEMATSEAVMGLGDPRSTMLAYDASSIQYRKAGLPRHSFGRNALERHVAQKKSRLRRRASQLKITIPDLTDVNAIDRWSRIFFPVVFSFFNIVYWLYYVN
T1 sequence (Q8N1C3 36-465): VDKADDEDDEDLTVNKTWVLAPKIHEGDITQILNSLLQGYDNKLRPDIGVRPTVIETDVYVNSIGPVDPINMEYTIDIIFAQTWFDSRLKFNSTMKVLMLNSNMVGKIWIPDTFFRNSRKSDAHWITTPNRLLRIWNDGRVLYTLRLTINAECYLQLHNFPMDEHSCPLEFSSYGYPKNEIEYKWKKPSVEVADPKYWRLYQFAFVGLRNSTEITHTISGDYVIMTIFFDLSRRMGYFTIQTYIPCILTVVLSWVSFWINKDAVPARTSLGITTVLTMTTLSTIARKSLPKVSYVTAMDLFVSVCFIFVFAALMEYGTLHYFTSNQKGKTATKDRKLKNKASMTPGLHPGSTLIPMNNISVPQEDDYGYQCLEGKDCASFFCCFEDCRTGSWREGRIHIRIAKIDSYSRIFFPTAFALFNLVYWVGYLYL
Assay: Radioligand binding assay, [3H]RO7239181 competition, HEK293F membranes

SMILES: Cc1nnc2n1-c1ccc(C(F)(F)F)c(Cl)c1C(c1ncccc1F)=NC2 [Example 78, 7-chloro-6-(3-fluoro-2-pyridyl)-1-methyl-8-(trifluoromethyl)-4H-[1,2,4]triazolo[4,3-a][1,4]benzodiazepine]
- Ki: 67.7 nM

SMILES: COc1ccc2c(c1Cl)C(c1c(F)cccc1F)=NCc1nnc(C3CC3)n1-2 [Example 79, 7-chloro-1-cyclopropyl-6-(2,6-difluorophenyl)-8-methoxy-4H-[1,2,4]triazolo[4,3-a][1,4]benzodiazepine]
- Ki: 80.1 nM

SMILES: CO[C@H]1C[C@H](c2nnc3n2-c2ccc(Cl)c(Cl)c2C(c2c(F)cccc2F)=NC3)C1 [Example 91, trans-7,8-dichloro-6-(2,6-difluorophenyl)-1-(3-methoxycyclobutyl)-4H-[1,2,4]triazolo[4,3-a][1,4]benzodiazepine]
- Ki: 51.3 nM

SMILES: Fc1cccc(F)c1C1=NCc2nnc(-c3cccnn3)n2-c2ccc(Br)c(Cl)c21 [Example 104, 8-bromo-7-chloro-6-(2,6-difluorophenyl)-1-pyridazin-3-yl-4H-[1,2,4]triazolo[4,3-a][1,4]benzodiazepine]
- Ki: 4.2 nM

SMILES: Cc1ncc2n1-c1ccc(Cl)cc1C(c1ccccc1F)=NC2 [Midazolam, reference compound]
- Ki: 1150 nM
